From patent US8143409B2, “Crystalline form of rabeprazole sodium” (Dipharma Francis S.R.L., priority 2006, dated 2012)

How the values were obtained:
[1] = Stability of the crystalline hydrate form at room temperature; type: physicochemical; details: compared with hydrated crystalline forms alpha and beta
[2] = Thermodynamic stability by comparing DSC thermograms; type: physicochemical; details: compared with known hydrate forms α and β, by comparing the respective DSC thermograms
Procedure: DSC thermograms were recorded with a Mettler-Toledo differential scansion calorimeter DSC 822, under the following operative conditions: aluminium capsules, 30-400° C. range with increase of 10° C./min, under nitrogen as purging gas (80 ml/min).

[3] = isomorphic forms of EP 1674463; makes handling and storing easy; cited from earlier work

Structure (SMILES)	stability [1]	thermodynamic stability [2]	hygroscopicity [3]
COCCCOc1ccnc(C[S+]([O-])c2nc3ccccc3[n-]2)c1C.[Na+] (stereo not drawn) [Form γ, 2-[[[4-(3-methoxypropoxy)-3-methyl-2-pyridinyl]-methyl]sulfinyl]-1H-benzylimidazole sodium salt]	more stable at room temperature	thermodynamically more stable than the known hydrate forms α and β	–
COCCCOc1ccnc(C[S+]([O-])c2nc3ccccc3[n-]2)c1C.[Na+] (stereo not drawn) [alpha]	–	–	low hygroscopicity
